# Experimental data from US20090048295A1, “SUBSTITUTED 5,6,7,8-TETRAHYDROQUINOLINE DERIVATIVES, COMPOSITIONS, AND METHODS OF USE THEREOF” (priority 2007, published 2009).
# Tests used:
# C5a receptor [1] = biological target: T1, C5a receptor (Homo sapiens, UniProt P21730); assay: Calcium Mobilization Assay (C5a-induced Ca2+ mobilization, FLIPR, differentiated U937 cells); assay type: cell-based; parameters: endogenous in cells; host or cells: U937 cells differentiated with dibutyryl cAMP; details: […] recombinant human C5a, 20 min pre-incubation, multiple values = duplicate experiments, read-out: C5a Induced Ca Mobil. Average IC50
# T1 sequence (P21730 1-350): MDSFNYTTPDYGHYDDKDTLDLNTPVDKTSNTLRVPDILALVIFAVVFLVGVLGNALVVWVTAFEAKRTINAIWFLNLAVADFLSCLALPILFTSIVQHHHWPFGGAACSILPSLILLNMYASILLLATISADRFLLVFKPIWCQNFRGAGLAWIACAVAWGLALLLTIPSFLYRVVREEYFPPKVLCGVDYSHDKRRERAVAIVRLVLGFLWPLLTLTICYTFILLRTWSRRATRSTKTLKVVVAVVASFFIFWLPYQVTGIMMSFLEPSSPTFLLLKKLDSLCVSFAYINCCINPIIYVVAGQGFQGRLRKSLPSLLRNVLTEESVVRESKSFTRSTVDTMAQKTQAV
# Procedure: U937 cells (human monocytic cell line) were cultured in RPMI-1640 medium supplemented with 10% fetal bovine serum, 10 mM HEPES, 0.11 g/L pyruvate, 0.29 g/L L-glutamine, 100 IU/mL penicillin G and […] streptomycin. Dibutyryl cAMP (1 mM) was added to induce differentiation 2 or 3 days prior to loading the cells with 4.4 μM Fluo-3AM (Molecular Probes) for 30 min at 37° C. in RPMI medium containing 20 mM HEPES, 0.1% bovine serum albumin (BSA) and 5 mM probenecid. After washing, cells were dissolved at 2×10^6 cells/ml in HBSS buffer (Invitrogen 14190-094) supplemented with 10 mM HEPES, 2.5 mM probenecid and 0.1% BSA (pH=7.4), and sedimented by 1 min centrifugation (1500 rpm) in black 96-well plates (Costar) (200,000 cells/well). A 100× concentration range of test compounds was prepared in DMSO and further diluted in HBSS buffer. U937 cells were pre-incubated with compound for 20 minutes at room temperature (1% DMSO), before recombinant human C5a (Sigma) was added to the cells (1.5 nM). Changes in intracellular free Ca^2+ concentration were measured using the Fluorescent Imaging Plate Reader (FLIPR, Molecular Devices). Fluorescence was recorded every second from 10 seconds before the addition of C5a until 2 min after the addition. The maximal fluorescence obtained during this time frame was used for further calculations.
# C5a receptor [2] = biological target: T1, C5a receptor; assay: [125I]-C5a Radioligand Binding Assay (competition binding, differentiated U937 cells); details: [125I]-C5a 0.05 nM, U937 cells, multiple values = duplicate experiments; for [125I]-C5a Binding % Inhibition 1 μM: test compound 1 μM; for [125I]-C5a Binding % Inhibition 10 μM: test compound 10 μM; for inhibition at 1 µM: read-out: [125I]-C5a Binding % Inhibition 1 μM, test compound 1 μM; for inhibition at 10 µM: read-out: [125I]-C5a Binding % Inhibition 10 μM, test compound 10 μM;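 as to all read-outs here: cells preincubated with compound 30 min at room temperature, then 60 min at 4 °C with radioligand, bound counts read by scintillation, nonspecific binding defined with 100 nM C5a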
IC50 (C5a receptor [1]) [nM],[125I]-C5a Binding % Inhibition 1 μM (C5a receptor [2]) [%],[125I]-C5a Binding % Inhibition 10 μM (C5a receptor [2]) [%],inhibition at 1 µM (C5a receptor [2]) [%],inhibition at 10 µM (C5a receptor [2]) [%],SMILES
> 10000,86,85,,,COc1cccc(N(C)C2CCCc3nc(-c4c(C)cccc4C)cc(OC)c32)c1C (stereo not shown) [Compound 117]
176,87,86,,,CCc1cccc(CC)c1-c1cc(OC)c2c(n1)CCCC2N(C)c1cccc2cc(OC)ccc12 (stereo not shown) [Compound 22]
> 10000,,,16,47,CCc1cccc(CC)c1-c1cc(OC)c2c(n1)CCCC2N(CC)c1ncnc2ccccc12 (stereo not shown) [Compound 135]
> 10000,,,,,CCc1cccc(CC)c1-c1cc(OC)c2c(n1)CCCC2Nc1ccc(CO)cc1C (stereo not shown) [Compound 141]
> 10000,,,68,80,CCc1cccc(CC)c1-c1cc(OC)c2c(n1)CCCC2N1CCc2ccccc21 (stereo not shown) [Compound 93]
> 10000,,,47,59,CCc1cccc(CC)c1-c1cc(OC)c2c(n1)CCCC2N1CCc2ccc(C(=O)OC)cc2C1 (stereo not shown) [Compound 97]
216,,,88,91,CCc1cccc(CC)c1-c1cc(OC)c2c(n1)CCCC2N(CC)c1cccc2c1CCCC2 (stereo not shown) [Compound 24]
380,,,88,91,CCc1cccc(CC)c1-c1cc(OC)c2c(n1)CCCC2Nc1cc(OC)ccc1Cl (stereo not shown) [Compound 32]
30,,,92,97,CCc1cccc(CC)c1-c1cc(OC)c2c(n1)CCCC2Nc1ccccc1CCO (stereo not shown) [Compound 5]
5130,,,83,85,CCN(c1cccc(C)c1C)C1CCCc2nc(-c3c(C)cccc3C)cc(OC)c21 (stereo not shown) [Compound 76]
7410,,,55,71,CCc1cccc(CC)c1-c1cc(OC)c2c(n1)CCCC2Nc1cccc(OC)c1 (stereo not shown) [Compound 81]
543,,,74,86,COc1ccc(C)c(NC2CCCc3nc(-c4c(C)cccc4C)cc(OC)c32)c1 (stereo not shown) [Compound 37]
> 10000,,,2,33,CCc1cccc(CC)c1-c1cc(OC)c2c(n1)CCCC2N(C)C1CCCCC1 (stereo not shown) [Compound 124]
2320,,,,,CCc1cccc(CC)c1-c1cc(OCCN(C)C)c2c(n1)CCCC2Nc1cc(OC)ccc1C (stereo not shown) [Compound 62]
949,,,83,89,CCc1cccc(CC)c1-c1cc(OC)c2c(n1)CCCC2N(C)c1cc(OC)ccc1Cl (stereo not shown) [Compound 47]
> 10000,,,-25,-9,CCc1cccc(CC)c1-c1cc(OC)c2c(n1)CCCC2N1CCc2cc(C(=O)O)ccc2C1 (stereo not shown) [Compound 128]
2570,,,66,76,CCc1cccc(CC)c1-c1cc(OC)c2c(n1)CCCC2N(C)c1cc(OC)ccc1OC (stereo not shown) [Compound 68]
> 10000,,,-26,-9,CCc1cccc(CC)c1-c1cc(OC)c2c(n1)CCCC2N1CCc2ccc(C(=O)O)cc2C1 (stereo not shown) [Compound 131]
244,,,,,"CCc1cccc(CC)c1-c1cc(CC)c2c(n1)CCCC2Nc1cc(OC)ccc1C (racemic) [Compound 25, (±)-[2-(2,6-Diethyl-phenyl)-4-ethyl-5,6,7,8-tetrahydro-quinolin-5-yl]-(5-methoxy-2-methyl-phenyl)-amine]"
3470,,,,,"CCCC1(Nc2cc(OC)ccc2C)CCCc2nc(-c3c(CC)cccc3CC)cc(OC)c21 (racemic) [Compound 70, (±)-[2-(2,6-Diethyl-phenyl)-4-methoxy-5-propyl-5,6,7,8-tetrahydro-quinolin-5-yl]-(5-methoxy-2-methyl-phenyl)-amine]"

IC50 (C5a receptor [1]) [nM],[125I]-C5a Binding % Inhibition 1 μM (C5a receptor [2]) [%],[125I]-C5a Binding % Inhibition 10 μM (C5a receptor [2]) [%],inhibition at 1 µM (C5a receptor [2]) [%],inhibition at 10 µM (C5a receptor [2]) [%],SMILES
4960,,,,,CCc1cccc(CC)c1-c1cc(OC)c2c(n1)CCCC2Nc1ccccc1CN (stereo not shown) [Compound 75]
> 10000,,,,,CCOC(=O)c1ccccc1OC1CCCc2nc(-c3c(CC)cccc3CC)cc(OC)c21 (stereo not shown) [Compound 150]
> 10000,,,,,CCc1cccc(CC)c1-c1cc(OC)c2c(n1)CCCC2Oc1cc(OC)ccc1C=O (stereo not shown) [Compound 143]
191,,,,,CCc1cccc(CC)c1-c1cc(CC)c2c(n1)CCCC2N(CC)c1cccc2ccccc12 (stereo not shown) [Compound 23]
26,,,,,CCc1cccc(CC)c1-c1cc(OC)c2c(n1)CCCC2Nc1cc(Cl)ccc1CO (stereo not shown) [Compound 3]
53,,,,,CCc1cccc(CC)c1-c1cc(OC)c2c(n1)CCCC2Nc1ccc(F)cc1CO (stereo not shown) [Compound 7]
134,,,,,CCc1cccc(CC)c1-c1cc(OC2CCCC2)c2c(n1)CCCC2Nc1cc(OC)ccc1C (stereo not shown) [Compound 17]
2390,,,,,CCc1cccc(CC)c1-c1cc(OC)c2c(n1)CCCC2Oc1ccccc1CCO (stereo not shown) [Compound 64]
> 10000,,,,,CCc1cccc(CC)c1-c1cc(OC)c2c(n1)CCCC2Nc1cccc(CO)c1 (stereo not shown) [Compound 142]
> 10000,,,,,CCc1cccc(CC)c1-c1cc(OC)c2c(n1)CCCC2NCc1ccccc1N (stereo not shown) [Compound 145]
414,,,,,CCc1cccc(CC)c1-c1cc(OC)c2c(n1)CCCC2Nc1ccccc1C(=O)O (stereo not shown) [Compound 33]
> 10000,,,,,CCc1cccc(CC)c1-c1cc(OC)c2c(n1)CCCC2(C)Nc1cc(OC)ccc1C (stereo not shown) [Compound 140]
> 10000,,,,,CCc1cccc(CC)c1-c1cc(O)c2c(n1)CCCC2Nc1cc(O)ccc1C (stereo not shown) [Compound 146]
> 10000,,,,,CCN(c1cccc2ccccc12)C1CCCc2nc(-c3c(C)noc3C)cc(OC)c21 (stereo not shown) [Compound 151]
137,,,,,CCc1cccc(CC)c1-c1cc(OC(C)C)c2c(n1)CCCC2Nc1cc(OC)ccc1C (stereo not shown) [Compound 18]
3470,,,,,CCc1cccc(CC)c1-c1cc(OC)c2c(n1)CCCC2Nc1cnccc1CO (stereo not shown) [Compound 71]
7.3,,,,,CCc1cccc(CC)c1-c1cc(OC(C)C)c2c(n1)CCCC2Nc1ccccc1CCO (stereo not shown) [Compound 1]
22,,,,,CCc1cccc(CC)c1-c1cc(OC)c2c(n1)CCCC2Nc1cc(C(F)(F)F)ccc1CO (stereo not shown) [Compound 2]
> 10000,,,,,CCc1cccc(CC)c1-c1cc(OC)c2c(n1)CCCC2Oc1ccccc1CO (stereo not shown) [Compound 139]

SMILES,IC50 (C5a receptor [1]) [nM],[125I]-C5a Binding % Inhibition 1 μM (C5a receptor [2]) [%],[125I]-C5a Binding % Inhibition 10 μM (C5a receptor [2]) [%],inhibition at 1 µM (C5a receptor [2]) [%],inhibition at 10 µM (C5a receptor [2]) [%]
CCc1cccc(CC)c1-c1cc(OC)c2c(n1)CCCC2N(C)c1ccc(OC)c2ccccc12 (stereo not shown) [Compound 36],531,,,86,87
CCc1cccc(CC)c1-c1cc(OCc2ccccc2)c2c(n1)CCCC2N(CC)c1cccc2ccccc12 (stereo not shown) [Compound 27],273,,,90,94
CCc1cccc(CC)c1-c1cc(OC)c2c(n1)CCCC2N(C(C)=O)c1cccc2ccccc12 (stereo not shown) [Compound 79],6170,,,49,78
CCc1cccc(CC)c1-c1cc(OC)c2c(n1)CCCC2N1CCc2c(Cl)cccc2C1 (stereo not shown) [Compound 56],1690,,,84,85
"CCOc1cc(-c2c(CC)cccc2CC)nc2c1C(N(CC)c1cccc3ccccc13)CCC2 (racemic) [Compound 8, (±)-[2-(2,6-Diethyl-Phenyl)-4-ethoxy-5,6,7,8-tetrahydro-quinolin-5-yl]-ethyl-naphthlen-1-yl-amine]",67,,,94,96
CCN(c1cccc2ccccc12)C1CCCc2nc(-c3c(C)cc(OC)cc3C)cc(OC)c21 (stereo not shown) [Compound 21],169,,,91,93
CCc1cccc(CC)c1-c1cc(OC)c2c(n1)CCCC2N1CCc2cccc(C(=O)OC)c2C1 (stereo not shown) [Compound 44],839,,,77,87
CCc1cccc(CC)c1-c1cc(OC2CCCC2)c2c(n1)CCCC2N(CC)c1cccc2ccccc12 (stereo not shown) [Compound 6],37,,,,
CCN(c1cccc2ccccc12)C1CCCc2nc(-c3c(Cl)cccc3OC)cc(OC)c21 (stereo not shown) [Compound 13],109,,,,
